Reference: paper PMC12024213, “Mechanism Insight of Cell Death Signaling by Thymol Derivatives on Trypanosomatidae Protozoan Parasites” (Antibiotics, 2025)
Read-outs that look alike come from different tables or passages of the source.

Legend:
[1] = tested on: L. amazonensis promastigotes; assay: Hoechst/PI double stain, chromatin condensation, L. amazonensis; assay type: cell-based, Leishmania amazonensis; details: IC90, 24 h
Description: (§1) To identify the type of cell death occurring in both kinetoplastids after treatment, Hoechst 33342 and propidium iodide (PI) dyes were used. Even though both dyes are DNA affine, the Hoechst 33342 stain is cell permeable and known to distinguish apoptotic cells from healthy or necrotic cells, whereas the PI is cell impermeable and stain dead cells as late apoptotic or necrosis. After treatment, three types of staining could be observed: blue fluorescence for cells undergoing apoptosis, violet color as the merge of blue and red fluorescence for late apoptotic cells, and red color for dead cells.

[2] = Intramacrophagic stage assay, L. amazonensis in J774.A1 macrophages; assay type: cell-based, Leishmania amazonensis; details: mouse; CC50 J774.A1 / IC50 intracellular L. amazonensis; read-out: Selectivity Leishmania SI (CC50/IC50)
Protocol: (§2) Briefly, in a 96-well plate, macrophages from the J774.A1 cell line were seeded at a final concentration of 2 × 10^5 cells/mL in Dulbecco’s Modified Eagle Medium (DMEM) and maintained at 37 °C in a 5% CO2 atmosphere until fully adhesion. […] After infection, plates were washed using DMEM to eliminate external parasites. Subsequently, infected macrophages were treated with different concentrations of active compounds for 24 h. Later, macrophages were lysed using 30 μL of medium, Schneider for Leishmania, and in liver infusion tryptose for Trypanosoma, containing 0.05% of sodium dodecyl sulfate (SDS) for 30 s under agitation. Afterwards, 170 μL of the appropriated medium was derivatives added to each well to give a final volume of 200 μL. Subsequently, 10% of alamarBlue® was added into each well and the plate was incubated at 26 °C for 72 h. Cytotoxicity effect of the tested derivatives was conducted using macrophages of the murine cell line J774.A1 (American Type Culture Collection #TIB-67, city, country), as previously described. The cells were maintained in DMEM at 37 °C in a 5% CO2 humidified incubator.

[3] = tested on: intramacrophage L. amazonensis; assay: as above; assay type: cell-based, Leishmania amazonensis; details: Leishmania amazonensis; intramacrophage stage in J774.A1, 24 h treatment; mean ± SD; read-out: L. amazonensis Intracellular IC50
Protocol: as §2

T. cruzi = assay: ATP level, CellTiter-Glo, T. cruzi; assay type: cell-based, Trypanosoma cruzi; details: IC90, 24 h, luminescence
Protocol: The adenosine triphosphate (ATP) level was measured using the CellTiter-Glo Luminescent Cell Viability Assay (Promega, Madrid, Spain). The mitochondria in which most cellular oxidations occur is considered the main source of cell’s ATP; any damage and/or malfunction of this organelle generate the depletion of ATP levels.

T. cruzi epimastigotes [4] = assay: Monodansylcadaverine staining of autophagic vacuoles, T. cruzi; assay type: cell-based, Trypanosoma cruzi; details: 24 h treatment, confocal microscopy
Protocol: (§3) The present method consists of staining the autophagic vacuoles with the treated cells by ion trapping and specific interactions with the vesicle membrane lipids. The experiment was carried out by following the manufacturer’s recommendations, and as described previously. After 24 h of incubation, cells were stained with MDC reagent at 5 mM and incubated at 26 °C for 30 min in µ-Slide 8 (Ibidi, Gräfelfing, Germany). Later, the cells were washed with PBS and observed with Leica DMI 4000 B.

[5] = alamarBlue assay on L. amazonensis promastigotes; assay type: cell-based, Leishmania amazonensis; details: mouse; CC50 J774.A1 / IC50 L. amazonensis promastigotes; read-out: Selectivity Leishmania SI (CC50/IC50)
Protocol: (§4) The assay was conducted using the alamarBlue® method as previously described. Briefly, promastigotes of L. amazonensis were grown at 26 °C in Schneider’s medium (US Biological, Life sciences) and supplemented with 10% heat-inactivated fetal bovine serum and 0.04% of sodium bicarbonate. In a 96-well microtiter plates (Corning™, Corning, NY, USA) a serial dilutions of thymol derivatives were first prepared, and later, 10^6 parasites/mL were added into each well. Subsequently, 10% of alamarBlue® was added to the entire plate. The plates were incubated for 72 h at 26 °C.
(§5) Cytotoxicity effect of the tested derivatives was conducted using macrophages of the murine cell line J774.A1 (American Type Culture Collection #TIB-67, city, country), as previously described. The cells were maintained in DMEM at 37 °C in a 5% CO2 humidified incubator. All the plates containing alamarBlue® were analyzed using a plate reader EnSpire Multimode Plate Reader® at excitation and emission wavelengths of 570 and 585 nm, respectively (PerkinElmer, ThermoFisher Scientific, Madrid, Spain). The IC50 (concentrations able to inhibit 50% of parasites), IC90 (concentrations able to inhibit 90% of parasites), and CC50 (concentration able to inhibit 50% of murine macrophages) values were determined for each compound by nonlinear regression using GraphPad software.

[6] = tested on: L. amazonensis promastigotes; assay: alamarBlue assay on L. amazonensis promastigotes; assay type: cell-based, Leishmania amazonensis; details: Leishmania amazonensis
Protocol: as §4, §5

T. cruzi epimastigotes [7] = assay: Hoechst/PI double stain, chromatin condensation, T. cruzi; assay type: cell-based, Trypanosoma cruzi; details: IC90, 24 h
Description: as §1

[8] = tested on: L. amazonensis promastigotes; assay: Monodansylcadaverine staining of autophagic vacuoles, L. amazonensis; assay type: cell-based, Leishmania amazonensis; details: 24 h treatment, confocal microscopy
Protocol: as §3

[9] = alamarBlue assay on T. cruzi epimastigotes; assay type: cell-based, Trypanosoma cruzi; details: mouse; CC50 J774.A1 / IC50 T. cruzi epimastigotes; read-out: Selectivity Trypanosoma SI (CC50/IC50)
Protocol: (§6) In a 96-well plate, a serial dilution of the tested derivatives was performed in liver infusion tryptose medium supplemented with 10% heat inactivated fetal bovine serum. Later, 100 µL of 5 × 10^5 cells/mL of epimastigotes was added to each well. Afterwards, 20 µL of alamarBlue® was added to each well, and the plate was maintained at 26 °C for 72 h.
as §5

T. cruzi epimastigotes [10] = assay: alamarBlue assay on T. cruzi epimastigotes; assay type: cell-based, Trypanosoma cruzi; details: Trypanosoma cruzi
Protocol: as §6, §5

[11] = 72 h, promastigotes, alamarBlue, 72 h at 26 °C, mean ± SD, triplicates, read-out: L. amazonensis Promastigote IC50
[12] = 72 h, epimastigotes, alamarBlue, 72 h at 26 °C, mean ± SD, triplicates, read-out: T. cruzi Epimastigote IC50

SMILES | chromatin condensation (Hoechst/PI staining) [1] | selectivity ratio [2] | IC50 [3] [µM] | decrease of ATP production compared to negative control (T. cruzi) [%] | autophagic vacuoles (MDC staining) (T. cruzi epimastigotes [4]) | selectivity ratio [5] | IC50 [6, 11] [µM] | IC50 ([6]; abstract, stage not stated, read-out: IC50 against L. amazonensis (abstract)) [µM] | chromatin condensation (Hoechst/PI staining) (T. cruzi epimastigotes [7]) | autophagic vacuoles (MDC staining) [8] | selectivity ratio [9] | IC50 (T. cruzi epimastigotes [10]; [12]) [µM] | IC50 (T. cruzi epimastigotes [10]; abstract, stage not stated, read-out: IC50 against T. cruzi (abstract)) [µM]
COc1ccc(C(=O)Oc2cc(C)ccc2C(C)C)cc1 [Derivative 9, thymyl anysoate] | increasing the chromatin condensation | > 19.7 | 15.2 ± 0.8 | 65 | Induction of autophagy | > 10.3 | 29.1 ± 3.8 | 22.9 | increasing the chromatin condensation | Induction of autophagy | > 11.2 | 26.8 ± 2.2 | 
Cc1ccc(C(C)C)c(OC(=O)c2ccccn2)c1 [Derivative 10, thymyl picolinate] | increasing the chromatin condensation | 10.1 | 25.3 ± 0.8 | 50 | Induction of autophagy | 7.4 | 34.4 ± 2.3 |  | increasing the chromatin condensation | Induction of autophagy | 7.2 | 35.5 ± 2.5 | 25.2
